Measurements reported in ChEMBL document CHEMBL1151092, “Novel 4-substituted pyridine derivatives: Practical derivatization and biological profiles of reversible inhibitors” (Bioorg Med Chem Lett, 1997).

Tests used:
Assay type in all cases: tissue-based
[1] = molecular target: Potassium-transporting ATPase (Sus scrofa, UniProt P19156); assay: The compound was tested for its inhibitory activity against H+/K+ ATPase by using hog stomach membrane fractions (pH 6.4)
[2] = molecular target: T1, Potassium-transporting ATPase (Sus scrofa) (UniProt P18434+P19156); assay: The compound was tested for its inhibitory activity against H+/K+ ATPase by using hog stomach membrane fractions (pH 6.4) at 4 uM
[3] = molecular target: T1, Potassium-transporting ATPase (Sus scrofa); assay: The compound was tested for its inhibitory activity against H+/K+ ATPase by using hog stomach membrane fractions at 4 uM
[4] = molecular target: T1, Potassium-transporting ATPase (Sus scrofa); assay: The compound was tested for its inhibitory activity against H+/K+ ATPase by using hog stomach membrane fractions at 10 uM
[5] = molecular target: T1, Potassium-transporting ATPase (Sus scrofa); assay: The compound was tested for its inhibitory activity against H+/K+ ATPase by using hog stomach membrane fractions at 8 uM

Chain of Potassium-transporting ATPase (P18434 whole entry): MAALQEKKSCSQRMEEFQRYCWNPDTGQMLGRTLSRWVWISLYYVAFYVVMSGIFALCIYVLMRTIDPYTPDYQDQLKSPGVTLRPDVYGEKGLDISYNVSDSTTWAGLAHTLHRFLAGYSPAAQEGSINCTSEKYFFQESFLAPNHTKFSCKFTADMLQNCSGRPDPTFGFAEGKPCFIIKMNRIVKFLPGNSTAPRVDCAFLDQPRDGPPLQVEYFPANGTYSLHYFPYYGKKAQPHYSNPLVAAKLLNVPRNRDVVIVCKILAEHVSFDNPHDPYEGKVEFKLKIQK
Chain of Potassium-transporting ATPase (P19156 whole entry): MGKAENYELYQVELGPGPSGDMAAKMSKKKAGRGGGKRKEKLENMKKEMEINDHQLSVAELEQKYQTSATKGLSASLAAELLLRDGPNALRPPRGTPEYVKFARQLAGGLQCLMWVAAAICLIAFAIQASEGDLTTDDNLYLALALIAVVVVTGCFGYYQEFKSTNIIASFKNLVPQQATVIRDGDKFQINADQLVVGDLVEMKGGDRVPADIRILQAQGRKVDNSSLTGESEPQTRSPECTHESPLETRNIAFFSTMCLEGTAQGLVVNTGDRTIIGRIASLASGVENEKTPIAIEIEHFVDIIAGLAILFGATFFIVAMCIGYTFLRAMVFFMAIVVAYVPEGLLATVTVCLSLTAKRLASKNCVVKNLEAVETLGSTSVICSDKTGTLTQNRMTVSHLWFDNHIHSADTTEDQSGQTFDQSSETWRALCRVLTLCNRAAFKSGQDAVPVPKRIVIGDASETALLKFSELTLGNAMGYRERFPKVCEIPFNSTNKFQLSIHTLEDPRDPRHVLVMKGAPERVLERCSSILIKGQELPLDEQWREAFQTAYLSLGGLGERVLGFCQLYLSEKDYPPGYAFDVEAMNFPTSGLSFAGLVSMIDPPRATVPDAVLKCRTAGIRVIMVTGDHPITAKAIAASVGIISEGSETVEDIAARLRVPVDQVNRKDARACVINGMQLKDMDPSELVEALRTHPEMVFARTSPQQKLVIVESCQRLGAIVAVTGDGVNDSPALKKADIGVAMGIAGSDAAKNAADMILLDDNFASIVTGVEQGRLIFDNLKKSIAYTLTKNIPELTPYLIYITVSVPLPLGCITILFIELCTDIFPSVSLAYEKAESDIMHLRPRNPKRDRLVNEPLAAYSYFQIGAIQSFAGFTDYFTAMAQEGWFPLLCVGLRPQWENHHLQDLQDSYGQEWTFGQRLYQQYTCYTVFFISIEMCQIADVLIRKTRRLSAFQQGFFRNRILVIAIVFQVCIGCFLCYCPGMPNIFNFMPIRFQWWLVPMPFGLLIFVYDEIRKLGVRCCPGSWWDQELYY

| SMILES | IC50 [1] [nM] | other results |
| --- | --- | --- |
| COc1ccccc1COc1cc(/C(=C\c2cccc3ccccc23)CO)ncc1C | 1700 |  |
| Cc1cnc(/C(=C\c2cccc3ccccc23)CO)cc1OCc1ccccc1O | 900 |  |
| CC#CCOc1cc(C(CO)Cc2cccc3ccccc23)ncc1C (stereo unspecified) |  | inhibition [2]: 22% |
| Cc1cnc(C(CO)Cc2cccc3ccccc23)cc1OCc1ccccn1 (stereo unspecified) |  | inhibition [3]: 21% |
| Cc1cnc(C(CO)Cc2cccc3ccccc23)cc1Oc1ccccc1 (stereo unspecified) |  | inhibition [4]: 36% |
| Cc1cnc(C(CO)Cc2cccc3ccccc23)cc1OCCOc1ccccc1 (stereo unspecified) |  | inhibition [5]: 27% |
| CC(C)=CCOc1cc(C(CO)Cc2cccc3ccccc23)ncc1C (stereo unspecified) | 3000 |  |
| Cc1cnc(C(CO)Cc2cccc3ccccc23)cc1OC1CCCCC1 (stereo unspecified) | 500 |  |

Second part, led by results:

| IC50 [1] [nM] | SMILES | other results |
| --- | --- | --- |
| 3100 | Cc1cnc(C(CO)Cc2cccc3ccccc23)cc1OCC1CCCCC1 (stereo unspecified) |  |
| 1800 | Cc1cnc(C(CO)Cc2cccc3ccccc23)cc1OCc1ccccc1O (stereo unspecified) |  |
| 600 | Cc1cnc(C(CO)Cc2cccc3ccccc23)cc1OCC(C)(C)C (stereo unspecified) |  |
